We go through four compounds from ChEMBL document CHEMBL5532665 (J Med Chem, 2024).

Data set [1] has as its system Mus musculus. Kind of data set: Rewarding affect in Kunming mouse model at 13.8 nmol/kg, sc pre-exposed to place conditioning for 3 days followed by compound administration and further re-exposed to place conditioning measured on day 5 by unbiased CPP method. In kind it is functional, organism-based. Particulars: time 2.0 day.
Data set [2] has as its system Mus musculus. Description: Induction of physical dependence in Kunming mouse model assessed as jumping behavior at 0.2 to 10 nmol/kg, sc administered as 7 escalating doses with 8 hr-intervals in-between followed by Nal administration post-2 hrs of last compound dose and further measured for 30 mins by withdrawal assay. In kind it is functional, organism-based. Particulars: dose 0.2-10 nmol/kg, time 50.5 hrs.

Data set [3] relates to Mus musculus. Kind of data set: Antinociceptive activity in Kunming mouse model at 1.4 nmol/kg, sc in presence of nor-BNI by tail-flick test. In kind it is functional, organism-based. A general note: Hot-plate and tail-flick tests time the reaction to a heat stimulus.
The subject of data set [4] is Mus musculus. Description: Antinociception activity in Kunming mouse model assessed as analgesic effect at 1.4 nmol/kg, sc administered daily measured for 8 days by tail-flick test. In kind it is functional, organism-based. The following applies: time 8.0 day.
In data set [5] the test system is Mus musculus. Description: Antinociceptive activity in Kunming mouse model at 1.4 nmol/kg, sc pretreated with NALM intracerebroventricularly followed by compound administration by tail-flick test. In kind it is functional, organism-based.
For data set [6], the system named is Mus musculus. Description: Antinociceptive activity in Kunming mouse model at 1.4 nmol/kg, sc pretreated with NALM subcutaneously followed by compound administration by tail-flick test. In kind it is functional, organism-based.
Data set [7] relates to Mus musculus. Description: Antinociceptive activity in Kunming mouse model at 1.4 nmol/kg, sc in presence of NTI by tail-flick test. In kind it is functional, organism-based.
Data set [8] relates to Mus musculus. Description: Antinociceptive activity in Kunming mouse model at 1.4 nmol/kg, sc in presence of beta-FNA by tail-flick test. In kind it is functional, organism-based.
For data set [9], the system named is Mus musculus. Description: Antinociceptive activity in Kunming mouse model assessed as increase in analgesic effect at 0.014 to 1.4 nmol/kg, sc measured for 180 to 360 mins by tail-flick test. In kind it is functional, organism-based. Particulars: dose 0.014-1.4 nmol/kg, time 180-360 min.
Data set [10] has as its system Mus musculus. Description: Antinociception activity in Kunming mouse model assessed as analgesic effect at 1.4 nmol/kg, sc administered daily measured for 8 days in presence of NTI by tail-flick test. Particulars: time 8.0 day. In kind it is functional, organism-based.
The target in data set [11] is Kappa-type opioid receptor (Homo sapiens, UniProt P41145). Kind of data set: Agonist activity at human KOR expressed in CHO-K1 cells co-expressing G-alpha15 by calcium mobilization assay relative to control. In kind it is functional, cell-based. The following applies: filed as agonist. On the technique in general: Calcium assays in cells follow changes in intracellular calcium, usually with a dye or a luminescent sensor.
Chain of Kappa-type opioid receptor (P41145 whole entry): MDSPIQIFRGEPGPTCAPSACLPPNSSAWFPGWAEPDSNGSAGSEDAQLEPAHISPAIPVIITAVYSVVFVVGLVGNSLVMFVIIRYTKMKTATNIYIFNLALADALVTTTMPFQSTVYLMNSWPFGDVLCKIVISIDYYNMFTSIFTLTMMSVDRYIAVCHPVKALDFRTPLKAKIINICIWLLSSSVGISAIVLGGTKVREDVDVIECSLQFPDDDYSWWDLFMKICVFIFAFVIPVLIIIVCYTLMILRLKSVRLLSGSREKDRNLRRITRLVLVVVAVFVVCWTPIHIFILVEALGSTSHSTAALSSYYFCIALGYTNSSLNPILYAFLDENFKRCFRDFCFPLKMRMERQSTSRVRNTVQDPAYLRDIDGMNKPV

In data set [12] the target is Delta-type opioid receptor (Homo sapiens, UniProt P41143). Description: Agonist activity at human DOR expressed in CHO-K1 cells co-expressing G-alpha15 by calcium mobilization assay relative to control. In kind it is functional, cell-based. Particulars: filed as agonist.
Chain of Delta-type opioid receptor (P41143 whole entry): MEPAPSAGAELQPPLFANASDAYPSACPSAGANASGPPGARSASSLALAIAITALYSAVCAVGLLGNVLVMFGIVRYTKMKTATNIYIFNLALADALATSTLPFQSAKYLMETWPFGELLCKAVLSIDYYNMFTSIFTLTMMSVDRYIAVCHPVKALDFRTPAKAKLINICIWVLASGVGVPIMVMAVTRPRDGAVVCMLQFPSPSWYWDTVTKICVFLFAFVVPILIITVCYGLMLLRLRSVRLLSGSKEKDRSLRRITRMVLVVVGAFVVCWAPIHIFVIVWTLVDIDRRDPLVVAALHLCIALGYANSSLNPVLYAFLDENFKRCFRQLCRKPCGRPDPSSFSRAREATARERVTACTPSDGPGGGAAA
Data set [13] addresses T1, Mu-type opioid receptor (Homo sapiens, UniProt P35372). Description: Agonist activity at human MOR expressed in CHO-K1 cells co-expressing G-alpha15 by calcium mobilization assay relative to control. The following applies: filed as agonist. In kind it is functional, cell-based.
Data set [14] has as its system Mus musculus. Kind of data set: Antinociceptive activity in Kunming mouse model at 1416 nmol/kg, sc in presence of nor-BNI by tail-flick test. In kind it is functional, organism-based.
Data set [15] relates to Mus musculus. Description: Antinociceptive activity in Kunming mouse model at 1416 nmol/kg, sc pretreated with NALM subcutaneously followed by compound administration by tail-flick test. In kind it is functional, organism-based.
Data set [16] concerns Mus musculus. Kind of data set: Antinociceptive activity in Kunming mouse model at 1416 nmol/kg, sc in presence of beta-FNA by tail-flick test. In kind it is functional, organism-based.
Data set [17] deals with Mus musculus. Description: Antinociceptive activity in Kunming mouse model at 1416 nmol/kg, sc in presence of NTI by tail-flick test. In kind it is functional, organism-based.
For data set [18], the system named is Mus musculus. Kind of data set: Antinociceptive activity in Kunming mouse model at 1416 nmol/kg, sc pretreated with NALM intracerebroventricularly followed by compound administration by tail-flick test. In kind it is functional, organism-based.
In data set [19] the target is T1, Mu-type opioid receptor. Description: Agonist activity at human MOR expressed in CHO-K1 cells co-expressing G-alpha15 by calcium mobilization assay. In kind it is functional, cell-based. Particulars: cho-k1.
The test system of data set [20] is Mus musculus. Kind of data set: Antinociceptive activity in Kunming mouse model assessed as latency of tail withdrawal at 13.9 nmol/kg, sc measured for 60 mins by tail-flick test relative to control. In kind it is functional. The following applies: 1 h.
The test system of data set [21] is Mus musculus. Kind of data set: Antinociceptive activity in Kunming mouse model assessed as latency of tail withdrawal at 13.9 nmol/kg, sc measured for 30 mins by tail-flick test relative to control. In kind it is functional. Particulars: 0.5 h.
Data set [22] deals with Mus musculus. Kind of data set: Antinociceptive activity in Kunming mouse model assessed as latency of tail withdrawal at 13.9 nmol/kg, sc measured for 10 mins by tail-flick test relative to control. In kind it is functional.
A short description of data set [23]: Stability in mouse plasma assessed as half life at 0.01 mol/L measured for 72 hrs by RP-HPLC analysis. In kind it is ADME, cell-free.
The subject of data set [24] is Mus musculus. Description: Antinociceptive activity in Kunming mouse model assessed as latency of tail withdrawal at 13.9 nmol/kg, sc measured for 120 mins by tail-flick test relative to control. The following applies: 2 h. In kind it is functional.
Data set [25] concerns Mus musculus. Description: Induction of physical dependence in Kunming mouse model assessed as jumping behavior at 2.5 to 125 nmol/kg, sc administered as 7 escalating doses with 8 hr-intervals in-between followed by Nal administration post-2 hrs of last compound dose and further measured for 30 mins by withdrawal assay. In kind it is functional, organism-based. The following applies: dose 2.5-125 nmol/kg, time 50.5 hrs.

For data set [26], the system named is Mus musculus. Kind of data set: Rewarding affect in Kunming mouse model at 139 nmol/kg, sc pre-exposed to place conditioning for 3 days followed by compound administration and further re-exposed to place conditioning measured on day 5 by unbiased CPP method. In kind it is functional, organism-based. The following applies: time 2.0 day.
Data set [27] has as its system Mus musculus. Kind of data set: Antinociceptive activity in Kunming mouse model at 13.9 nmol/kg, sc in presence of beta-FNA by tail-flick test. In kind it is functional, organism-based.
In data set [28] the test system is Mus musculus. Kind of data set: Antinociceptive activity in Kunming mouse model at 13.9 nmol/kg, sc pretreated with NALM intracerebroventricularly followed by compound administration by tail-flick test. In kind it is functional, organism-based.
Data set [29] deals with Mus musculus. Description: Antinociceptive activity in Kunming mouse model at 13.9 nmol/kg, sc in presence of nor-BNI by tail-flick test. In kind it is functional, organism-based.
Data set [30] relates to Mus musculus. Description: Antinociceptive activity in Kunming mouse model assessed as increase in analgesic effect at 0.14 to 13.9 nmol/kg, sc measured for 180 to 360 mins by tail-flick test. In kind it is functional, organism-based. The following applies: dose 0.14-13.9 nmol/kg, time 180-360 min.
The test system of data set [31] is Mus musculus. Kind of data set: Antinociceptive activity in Kunming mouse model at 13.9 nmol/kg, sc in presence of NTI by tail-flick test. In kind it is functional, organism-based.
The subject of data set [32] is Mus musculus. Kind of data set: Antinociceptive activity in Kunming mouse model at 13.9 nmol/kg, sc pretreated with NALM subcutaneously followed by compound administration by tail-flick test. In kind it is functional, organism-based.
Data set [33] relates to Mus musculus. Description: Antinociception activity in Kunming mouse model assessed as analgesic effect at 13.9 nmol/kg, sc administered daily measured for 8 days by tail-flick test. In kind it is functional, organism-based. The following applies: time 8.0 day.

Activity calls are given as the source filed them. The calls are words filed in the database; no cut-off is given here. Where only a bound is given, the exact number is not on record here.

T1 sequence (P35372 whole entry): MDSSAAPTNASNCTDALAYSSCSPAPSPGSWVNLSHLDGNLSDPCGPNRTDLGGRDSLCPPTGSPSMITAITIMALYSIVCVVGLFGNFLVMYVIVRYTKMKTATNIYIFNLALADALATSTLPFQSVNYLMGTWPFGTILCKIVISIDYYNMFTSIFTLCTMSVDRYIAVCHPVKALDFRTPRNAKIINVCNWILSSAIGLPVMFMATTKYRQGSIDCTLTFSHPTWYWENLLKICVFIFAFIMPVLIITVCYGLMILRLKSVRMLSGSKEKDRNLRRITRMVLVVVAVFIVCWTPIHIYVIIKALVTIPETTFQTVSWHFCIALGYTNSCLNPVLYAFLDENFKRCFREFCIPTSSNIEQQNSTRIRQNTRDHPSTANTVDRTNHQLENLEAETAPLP

As to `NC(=O)[C@@H]1CCCN1C(=O)[C@H]1CC(=O)NCCCC[C@@H](NC(=O)[C@@H](N)Cc2ccc(O)cc2)C(=O)NCC(=O)N[C@@H](Cc2ccc(F)cc2)C(=O)N1`, the result in data set [1], in [2], in [3], in data set [6] and in data set [8] was inactive. Also, the outcome in data set [4], in data set [5], in [7], in [9] and in [10] was Active. Also, the Emax (commonly the maximal effect, on the per cent scale that the assay sets) stood at 89.3% in data set [11], 110% in data set [12] and 95.3% in [13].
Take `NC(=O)[C@@H]1CCCN1C(=O)[C@H]1CC(=O)NCCCC[C@@H](NC(=O)[C@@H](N)Cc2ccc(O)cc2)C(=O)NCC(=O)N[C@@H](Cc2ccccc2)C(=O)N1`: the result in [14], in data set [15] and in data set [16] was inactive. For the same compound, the outcome in data set [17] and in data set [18] was Active. Moreover, the Emax in data set [11] is 103%; in [12] it was 107%; in data set [13], 109%.
Take `C[C@H]1NC(=O)[C@H](NC(=O)[C@@H](N)Cc2ccc(O)cc2)CCCCNC(=O)C[C@H](C(=O)N2CCC[C@H]2C(N)=O)NC(=O)[C@H](Cc2ccccc2)NC1=O`: the EC50 (usually the concentration giving half of the maximal effect) in [19] was 62.4 nM. In addition, the MPE is 88.4% in [20], 91.4% in data set [21], 63.6% in [22] and 44.4% in data set [24]. Also, in data set [13], the Emax is 115%. The half-life (commonly the time in which the quantity being followed falls by half) at 0.01 mol/L in data set [23] was > 72 h.
Regarding `CN1C(=O)CNC(=O)[C@H](NC(=O)[C@@H](N)Cc2ccc(O)cc2)CCCCNC(=O)C[C@H](C(=O)N2CCC[C@H]2C(N)=O)NC(=O)[C@@H]1Cc1ccccc1`, the result in data set [25], in data set [26], in data set [27], in [29] and in data set [32] was inactive. For the same compound, the result in data set [28], in data set [30], in data set [31] and in data set [33] was Active. Further, the figures for the Emax in data set [11], in data set [12] and in [13] were 93.7%, 121% and 90.7%, respectively.
